± gives the expanded uncertainty stated by the source.
What was measured:
[1] = 100 kPa, Liquid; for speed of sound: Frequency=2 MHz, Linear variable-path acoustic interferometer; for mass density: Vibrating tube method
[2] = xn = mol fraction of the nth substance listed; details: 100 kPa, Liquid, x1 = 1; for speed of sound: Frequency=2 MHz, Linear variable-path acoustic interferometer; for mass density: Vibrating tube method

## Cc1cccc(O)c1 [3-methylphenol]
[1]; 303.15 K
  speed of sound: 1466.1 ± 2.5 m/s
  mass density: 1025.71 ± 1.2 kg/m3
[1]; 308.15 K
  mass density: 1021.7 ± 1.2 kg/m3
[1]; 313.15 K
  speed of sound: 1436.1 ± 2.5 m/s
  mass density: 1017.69 ± 1.2 kg/m3
[1]; 318.15 K
  mass density: 1013.65 ± 1.2 kg/m3

## CCO [ethanol] + Cc1ccccc1O
[2]; 303.15 K
  speed of sound: 1127 ± 2.4 m/s
  mass density: 781.08 ± 1.2 kg/m3
[2]; 308.15 K
  mass density: 776.59 ± 1.2 kg/m3
[2]; 313.15 K
  speed of sound: 1094 ± 2.4 m/s
  mass density: 772.23 ± 1.2 kg/m3
[2]; 318.15 K
  mass density: 767.61 ± 1.2 kg/m3

## Cc1ccccc1O [2-methylphenol]
[1]; 303.15 K
  speed of sound: 1488.1 ± 2.5 m/s
  mass density: 1037.02 ± 1.2 kg/m3
[1]; 308.15 K
  mass density: 1032.58 ± 1.2 kg/m3
[1]; 313.15 K
  speed of sound: 1453 ± 2.5 m/s
  mass density: 1028.19 ± 1.2 kg/m3
[1]; 318.15 K
  mass density: 1023.82 ± 1.2 kg/m3

## CCO [ethanol] + Cc1ccc(O)cc1
[2]; 303.15 K
  speed of sound: 1127 ± 2.4 m/s
  mass density: 781.08 ± 1.2 kg/m3
[2]; 308.15 K
  mass density: 776.59 ± 1.2 kg/m3
[2]; 313.15 K
  speed of sound: 1094 ± 2.4 m/s
  mass density: 772.23 ± 1.2 kg/m3
[2]; 318.15 K
  mass density: 767.61 ± 1.2 kg/m3

## Cc1ccc(O)cc1 [4-methylphenol]
[1]; 303.15 K
  speed of sound: 1473 ± 2.5 m/s
  mass density: 1026.47 ± 1.2 kg/m3
[1]; 308.15 K
  mass density: 1022.56 ± 1.2 kg/m3
[1]; 313.15 K
  speed of sound: 1440.2 ± 2.5 m/s
  mass density: 1018.64 ± 1.2 kg/m3
[1]; 318.15 K
  mass density: 1014.68 ± 1.2 kg/m3

## CCO [ethanol]
[1]; 303.15 K
  speed of sound: 1127 ± 2.4 m/s
  mass density: 781.08 ± 1.2 kg/m3
[1]; 308.15 K
  mass density: 776.59 ± 1.2 kg/m3
[1]; 313.15 K
  speed of sound: 1094 ± 2.4 m/s
  mass density: 772.23 ± 1.2 kg/m3
[1]; 318.15 K
  mass density: 767.61 ± 1.2 kg/m3

## CCO [ethanol] + Cc1cccc(O)c1
[2]; 303.15 K
  speed of sound: 1127 ± 2.4 m/s
  mass density: 781.08 ± 1.2 kg/m3
[2]; 308.15 K
  mass density: 776.59 ± 1.2 kg/m3
[2]; 313.15 K
  speed of sound: 1094 ± 2.4 m/s
  mass density: 772.23 ± 1.2 kg/m3
[2]; 318.15 K
  mass density: 767.61 ± 1.2 kg/m3

Source: the NIST ThermoML archive (doi:10.1016/j.jct.2018.12.039)
